Laboratory results taken from article PMC12692968, “Design, Synthesis, Molecular Docking, and Anticancer Activity of Chalcone Derivatives as VEGFR-2 Inhibitors” (Molecules, 2025).
Read-outs that look alike come from different tables or passages of the source.

How the values were obtained:
[1] = CCK-8 cytotoxicity assay, HK-2 cells; type: cell-based, human
Procedure: (§1) The cytotoxicity of synthesized compounds against HK-2 cells was also detected. […] The SiHa, K562, B16 and HK-2 cells were obtained from Wuhan Pricella Biotechnology Co., Ltd. (Wuhan, China). […] 2–5 × 10^3 cells were added to each well of a 96-well plate and incubated for 12 h, followed by the addition of the tested compounds. After incubation for 48 h, 10 μL of the CCK-8 solution was added to each well and incubated for another 2 h. The absorbance of each well was measured at 450 nm using an enzyme-linked immunosorbent assay (ELISA) reader. The experiments were replicated three times. The inhibition rate of cancer cells was calculated using the Formula (1). The half-maximal inhibitory concentration (IC50) value was calculated using GraphPad Prism 8.0 software.

[2] = system: human renal epithelial cell line HK-2; test: CCK-8 cytotoxicity assay, HK-2 cells; type: cell-based; conditions: Homo sapiens, Epithelial cell; CCK-8, 48 h incubation, mean ± SD, n = 3
Procedure: as §1

K562 cells [3] = test: Annexin V apoptosis assay by flow cytometry; type: cell-based, human
Description: Enhancing apoptotic cell death is a crucial way for anticancer drugs to eliminate cancer cells.
The sample was centrifuged to isolate the cells and the kit instructions were followed for subsequent processing. Finally, apoptosis was quantified using a flow cytometer (Cytek Northern Light 3 Laser 16V-14B-8R, Wuxi, China). The experiments were replicated three times.

[4] = system: human cervical squamous cell carcinoma cell line SiHa; test: CCK-8 cytotoxicity assay, SiHa cells; type: cell-based; conditions: CCK-8, 48 h incubation, mean ± SD, n = 3
Procedure: (§2) The SiHa, K562, B16 and HK-2 cells were obtained from Wuhan Pricella Biotechnology Co., Ltd. (Wuhan, China). […] 2–5 × 10^3 cells were added to each well of a 96-well plate and incubated for 12 h, followed by the addition of the tested compounds. After incubation for 48 h, 10 μL of the CCK-8 solution was added to each well and incubated for another 2 h. The absorbance of each well was measured at 450 nm using an enzyme-linked immunosorbent assay (ELISA) reader. The experiments were replicated three times. The inhibition rate of cancer cells was calculated using the Formula (1). The half-maximal inhibitory concentration (IC50) value was calculated using GraphPad Prism 8.0 software.

[5] = system: human chronic myeloid leukemia cell line K562; test: CCK-8 cytotoxicity assay, K562 cells; type: cell-based; conditions: CCK-8, 48 h incubation, mean ± SD, n = 3
Procedure: as §2

[6] = molecular target: T1, VEGFR-2 (KDR) protein kinase (Homo sapiens, UniProt P35968); test: VEGFR-2 (KDR) Kinase Assay Kit enzyme inhibition assay; type: biochemical; conditions: Kinase-Glo MAX, 30 °C 45 min, mean ± SD, n = 3
T1 construct: purchased BPS Biosciences, San Diego, CA, USA
T1 sequence (P35968 20-1356): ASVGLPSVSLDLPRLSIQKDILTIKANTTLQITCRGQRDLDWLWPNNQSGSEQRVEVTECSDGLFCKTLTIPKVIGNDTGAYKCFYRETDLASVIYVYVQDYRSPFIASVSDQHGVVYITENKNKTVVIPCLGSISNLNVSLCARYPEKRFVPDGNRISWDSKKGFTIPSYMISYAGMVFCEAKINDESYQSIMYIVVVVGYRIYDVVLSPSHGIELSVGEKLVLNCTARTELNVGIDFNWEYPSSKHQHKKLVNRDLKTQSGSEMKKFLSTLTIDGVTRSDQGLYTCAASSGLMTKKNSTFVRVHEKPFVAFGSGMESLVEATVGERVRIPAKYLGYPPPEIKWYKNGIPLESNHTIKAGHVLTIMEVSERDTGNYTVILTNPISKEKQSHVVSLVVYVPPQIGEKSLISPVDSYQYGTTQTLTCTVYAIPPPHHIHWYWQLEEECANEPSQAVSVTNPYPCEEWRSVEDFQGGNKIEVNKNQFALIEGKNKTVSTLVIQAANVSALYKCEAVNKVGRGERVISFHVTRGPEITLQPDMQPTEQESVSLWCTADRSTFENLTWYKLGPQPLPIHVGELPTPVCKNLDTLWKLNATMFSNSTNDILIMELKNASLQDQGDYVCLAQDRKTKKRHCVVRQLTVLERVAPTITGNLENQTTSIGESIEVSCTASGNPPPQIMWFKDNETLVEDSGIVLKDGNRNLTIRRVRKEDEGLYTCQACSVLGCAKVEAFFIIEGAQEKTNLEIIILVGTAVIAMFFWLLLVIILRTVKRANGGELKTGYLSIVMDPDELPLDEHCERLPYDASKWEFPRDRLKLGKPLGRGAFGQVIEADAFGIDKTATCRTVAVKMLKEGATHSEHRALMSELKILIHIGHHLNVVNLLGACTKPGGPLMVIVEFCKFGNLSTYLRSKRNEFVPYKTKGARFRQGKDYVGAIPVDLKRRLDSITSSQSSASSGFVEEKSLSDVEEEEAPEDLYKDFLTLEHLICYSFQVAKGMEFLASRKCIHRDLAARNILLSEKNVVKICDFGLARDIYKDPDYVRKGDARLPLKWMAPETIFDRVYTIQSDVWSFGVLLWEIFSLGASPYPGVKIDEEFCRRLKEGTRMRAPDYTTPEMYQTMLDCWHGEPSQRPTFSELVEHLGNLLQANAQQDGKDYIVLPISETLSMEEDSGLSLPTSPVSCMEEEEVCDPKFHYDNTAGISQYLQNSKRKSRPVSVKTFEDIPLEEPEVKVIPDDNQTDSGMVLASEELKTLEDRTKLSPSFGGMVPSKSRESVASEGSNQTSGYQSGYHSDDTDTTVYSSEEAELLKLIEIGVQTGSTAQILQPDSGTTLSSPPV
Procedure: Many studies have shown that abnormal VEGFR-2 signaling could induce proliferation of cervical squamous cell carcinoma cells, myeloid leukemia cancer cells, and melanoma cells. […] A VEGFR-2 (KDR) Kinase Assay Kit (BPS Biosciences, San Diego, CA, USA) was used to conduct a VEGFR-2 inhibition assay following the manufacturer’s protocol. Briefly, kinase buffer and ATP and PTK substrate (Poly-Glu,Tyr 4:1) were diluted with distilled water to prepare a master mix solution. The master mix solution, test sample, and VEGFR-2 (KDR) protein kinase (2 ng/μL) were added to a 96-well plate and incubated at 30 °C for 45 min. After incubation, Kinase-Glo™ MAX (BPS Biosciences) reagent was added to each well, and incubated for 15 min at room temperature. Then it was immediately detected with an ELISA reader. The experiments were replicated three times.

[7] = system: mouse melanoma cell line B16; test: CCK-8 cytotoxicity assay, B16 cells; type: cell-based; conditions: CCK-8, 48 h incubation, mean ± SD, n = 3
Procedure: as §2

K562 cells [8] = test: Cell cycle analysis, PI staining, flow cytometry; type: cell-based, human; conditions: 5 μM, 24 h
Procedure: Cytotoxic compounds often inhibit cell proliferation by arresting the cell cycle at a specific phase.
The sample was then centrifuged (2000 rpm for 5 min), and the supernatant was aspirated. The fixed cells were resuspended in 0.5 mL of PI solution, cultured at 37 °C in the dark for 30 min, and then cultured at 4 °C in the dark for another 30 min Finally, the cell cycle sample was determined with a flow cytometer (Cytek Northern Light 3 laser 16V-14B-8R, Wuxi, China). The experiments were replicated three times.

VEGFR-2 = conditions: reported chalcone VEGFR-2 inhibitors, Figure 1; cited from earlier work
[9] = K562, 1.25, 2.5 and 5.0 μM, 24 h

**Q.** What does the source list for `O=C(Nc1ccc(C(=O)/C=C/c2cc(F)cc(F)c2)cc1)Nc1ccc(Cl)c(C(F)(F)F)c1` [Compound 2l, (E)-1-(4-chloro-3-(trifluoromethyl)phenyl)-3-(4-(3-(3,5-difluorophenyl)acryloyl)phenyl)urea]?
**A.** selectivity ratio at 48 h ([1]; human (HK-2), mouse (B16), HK-2 cells versus B16 cells, HK-2 vs B16, read-out: selectivity toward B16, fold decrease in cytotoxicity against HK-2): 18.2; selectivity ratio at 48 h ([1]; human, HK-2 cells versus K562 cells, HK-2 vs K562, read-out: selectivity toward K562, fold decrease in cytotoxicity against HK-2): 19.5; selectivity ratio at 48 h ([1]; human, HK-2 cells versus SiHa cells, HK-2 vs SiHa, read-out: selectivity toward SiHa, fold decrease in cytotoxicity against HK-2): 20.3; IC50 [2]: 25.4 ± 1.47 µM; viability at 1.25 µM (K562 cells [3]; Homo sapiens, K562, 1.25 μM, plot in Figure 2, read-out: Q4 viable cells): 92.8%; viability at 2.5 µM (K562 cells [3]; Homo sapiens, K562, 2.5 μM, plot in Figure 2, read-out: Q4 viable cells): 90.5%; viability at 5 µM (K562 cells [3]; Homo sapiens, K562, 5.0 μM, plot in Figure 2, read-out: Q4 viable cells): 38.8%; early apoptosis (K562 cells [3]; K562, 1.25 μM, 24 h): 5.80%; early apoptosis (K562 cells [3]; K562, 2.5 μM, 24 h): 8.34%; early apoptosis (K562 cells [3]; K562, 5.0 μM, 24 h): 57.79%; late apoptosis (K562 cells [3]; [9]): increased in a dose-dependent manner; necrosis of K562 cells (K562 cells [3]; [9]): Almost no necrosis; IC50 [4]: 1.25 ± 0.13 µM; IC50 ([4]; Homo sapiens, SiHa, 48 h): 1.25 to 1.39 µM; IC50 [5]: 1.3 ± 0.07 µM; IC50 ([5]; Homo sapiens, K562, 48 h): 0.91 ± 0.07 µM; IC50 [6]: 0.42 ± 0.03 µM; IC50 [7]: 1.39 ± 0.21 µM; IC50 ([7]; Mus musculus, B16, 48 h): 1.25 to 1.39 µM; percentage of K562 cells in the G2/M phase (K562 cells [8]; DMSO 8.00%): 3.05%; percentage of K562 cells in the S phase (K562 cells [8]; DMSO 43.34%): 43.83%; percentage of K562 cells in the G1 phase (K562 cells [8]; DMSO 48.66%): 53.12%

**Q.** For `CNC(=O)c1cc(Oc2ccc(C(=O)/C=C/c3cc(OC)c(OC)c(OC)c3)cc2)ccn1` [II], which IC50 (VEGFR-2) is on record?
**A.** 3.2 µM

**Q.** With `COc1cc(/C=C/C(=O)c2ccc(N3CCNCC3)cc2)ccc1F` [I] as the compound, how does the IC50 (VEGFR-2) read?
**A.** 0.57 µM
